Key:
[1] = tested on: S-AMACH smooth pigweed; assay: Greenhouse screen of ALS-inhibiting herbicides on susceptible smooth pigweed biotype; assay type: in vivo, Amaranthus hybridus L.; details: 3 WAT; for Biomass Reduction: compared to untreated plant biomass; for Biomass: plant dry weight; for Visual Control: scale 0-99%
Source text: (§1) Seeds from a smooth pigweed (Aniaranthus hybridus L.) population (R11-AMACH) were collected from a field in southeastern Pennsylvania where extreme ALS-inhibitor herbicide selection pressure was imposed over a several year period within continuous soybean production. R11-AMACH was selected naturally with ALS-inhibiting herbicides representative of the SU, IMI, and TP herbicide chemistries.
(§2) To establish levels and patterns of ALS resistance, R11-AMACH and an ALS susceptible smooth pigweed biotype (S-AMACH) were screened in the greenhouse with various rates of the ALS-inhibiting herbicides, chlorimuron (SU), thifensulfuron (SU), imazethapyr (IMI), pyrithiobac (POB), and cloransulam-methyl (TP). Rates evaluated were based on a log10 scale that included 0, 1/100×, 1/10×, 1×, 10×, and 100×, where 1× corresponds to the normal use rate in the field. R11-AMACH responded differently to the rate increase as compared to S-AMACH. […] Visual control, height, biomass, and biomass reduction are presented separately for chlorimuron (Table 3), thifensulfuron (Table 4), imazethapyr (Table 5), pyrithiobac (Table 6), and cloransulam (Table 7). Evaluations and measurements were recorded 3 weeks after herbicide treatment (WAT). Visual control was based on a scale of 0-99%, where 0% represents no control and 99% represents complete control. Biomass represents plant dry weights recorded several days after plants were harvested. Biomass reduction was calculated based on the amount of biomass reduced by herbicide treatment compared to the untreated plant biomass.

[2] = tested on: R11-AMACH smooth pigweed; assay: Greenhouse screen of ALS-inhibiting herbicides on resistant smooth pigweed biotype; assay type: in vivo, Amaranthus hybridus L.; details: 3 WAT; for Biomass Reduction: compared to untreated plant biomass; for Biomass: plant dry weight; for Visual Control: scale 0-99%
Source text: as §1, §2

[3] = rate 1/100× (1× = normal use rate in the field)

COc1cc(Cl)nc(NC(=O)NS(=O)(=O)c2ccccc2C(=O)O)n1 [chlorimuron, 2-[[[[(4-chloro-6-methoxy-2-pyrimidinyl)-amino]carbonyl]amino]-sulfonyl]benzoic acid]
Height ([1]; rate 1/10×): 14.3 cm
Biomass Reduction ([1]; rate 1/10×): 52.0%
Biomass ([1]; rate 1/10×): 1.65 g
Visual Control ([1]; rate 1/10×): 20%
Height ([1]; rate 1/100×): 27.8 cm
Biomass Reduction ([1]; rate 1/100×): 30.9%
Biomass ([1]; rate 1/100×): 2.37 g
Visual Control ([1]; rate 1/100×): 9%
Visual Control ([1]; rate 1× (normal use rate)): 81%
Height ([1]; rate 1×): 4.8 cm
Biomass Reduction ([1]; rate 1×): 95.8%
Biomass ([1]; rate 1×): 0.14 g
Height ([1]; rate 10×): 1.0 cm
Biomass Reduction ([1]; rate 10×): 98.6%
Biomass ([1]; rate 10×): 0.05 g
Visual Control ([1]; rate 10×): 99%
Height ([1]; rate 100×): 1.3 cm
Biomass Reduction ([1]; rate 100×): 96.7%
Biomass ([1]; rate 100×): 0.11 g
Visual Control ([1]; rate 100×): 99%
Height ([2]; rate 1/10×): 26.5 cm
Biomass Reduction ([2]; rate 1/10×): 3.7%
Biomass ([2]; rate 1/10×): 3.66 g
Visual Control ([2]; rate 1/10×): 6%
Visual Control [2, 3]: 5%
Height ([2]; rate 1/100×): 23.5 cm
Biomass Reduction ([2]; rate 1/100×): 10.0%
Biomass ([2]; rate 1/100×): 3.42 g
Visual Control ([2]; rate 1× (normal use rate)): 15%
Height ([2]; rate 1×): 21.8 cm
Biomass Reduction ([2]; rate 1×): 3.5%
Biomass ([2]; rate 1×): 3.67 g
Height ([2]; rate 10×): 23.5 cm
Biomass Reduction ([2]; rate 10×): 17.1%
Biomass ([2]; rate 10×): 3.15 g
Visual Control ([2]; rate 10×): 18%
Height ([2]; rate 100×): 14.8 cm
Biomass Reduction ([2]; rate 100×): 56.8%
Biomass ([2]; rate 100×): 1.64 g
Visual Control ([2]; rate 100×): 39%

CCOc1nc(F)cc2nc(S(=O)(=O)Nc3c(Cl)cccc3C(=O)OC)nn12 [cloransulammethyl]
Height ([1]; rate 1/10×): 3.6 cm
Biomass Reduction ([1]; rate 1/10×): 97.1%
Biomass ([1]; rate 1/10×): 0.25 g
Visual Control ([1]; rate 1/10×): 91%
Height ([1]; rate 1/100×): 0.7 cm
Biomass Reduction ([1]; rate 1/100×): 99.8%
Biomass ([1]; rate 1/100×): 0.02 g
Visual Control ([1]; rate 1/100×): 97%
Visual Control ([1]; rate 1× (normal use rate)): 96%
Height ([1]; rate 1×): 1.3 cm
Biomass Reduction ([1]; rate 1×): 99.1%
Biomass ([1]; rate 1×): 0.08 g
Height ([1]; rate 10×): 0.0 cm
Biomass Reduction ([1]; rate 10×): 100.0%
Biomass ([1]; rate 10×): 0.00 g
Visual Control ([1]; rate 10×): 99%
Height ([1]; rate 100×): 0.0 cm
Biomass Reduction ([1]; rate 100×): 100.0%
Biomass ([1]; rate 100×): 0.00 g
Visual Control ([1]; rate 100×): 99%
Height ([2]; rate 1/10×): 34.5 cm
Biomass Reduction ([2]; rate 1/10×): 24.7%
Biomass ([2]; rate 1/10×): 8.16 g
Visual Control ([2]; rate 1/10×): 23%
Visual Control [2, 3]: 0%
Height ([2]; rate 1/100×): 47.8 cm
Biomass Reduction ([2]; rate 1/100×): 0.5%
Biomass ([2]; rate 1/100×): 10.78 g
Visual Control ([2]; rate 1× (normal use rate)): 16%
Height ([2]; rate 1×): 37.6 cm
Biomass Reduction ([2]; rate 1×): 30.8%
Biomass ([2]; rate 1×): 7.49 g
Height ([2]; rate 10×): 32.0 cm
Biomass Reduction ([2]; rate 10×): 40.5%
Biomass ([2]; rate 10×): 6.44 g
Visual Control ([2]; rate 10×): 39%
Height ([2]; rate 100×): 12.2 cm
Biomass Reduction ([2]; rate 100×): 75.3%
Biomass ([2]; rate 100×): 2.68 g
Visual Control ([2]; rate 100×): 63%

CCc1cnc(C2=NC(C)(C(C)C)C(=O)N2)c(C(=O)O)c1 (centres unmarked) [imazethapyr, 2-[4,5-dihydro-4-methyl-4-(1-methylethyl)-5-oxo-1H-imidazol-2-yl]-5-ethyl-3-pyridinecarboxylic acid]
Height ([1]; rate 1/10×): 10.3 cm
Biomass Reduction ([1]; rate 1/10×): 81.6%
Biomass ([1]; rate 1/10×): 0.63 g
Visual Control ([1]; rate 1/10×): 58%
Height ([1]; rate 1/100×): 25.3 cm
Biomass Reduction ([1]; rate 1/100×): 42.3%
Biomass ([1]; rate 1/100×): 1.98 g
Visual Control ([1]; rate 1/100×): 12%
Visual Control ([1]; rate 1× (normal use rate)): 97%
Height ([1]; rate 1×): 2.3 cm
Biomass Reduction ([1]; rate 1×): 98.3%
Biomass ([1]; rate 1×): 0.06 g
Height ([1]; rate 10×): 0.3 cm
Biomass Reduction ([1]; rate 10×): 97.1%
Biomass ([1]; rate 10×): 0.10 g
Visual Control ([1]; rate 10×): 99%
Height ([1]; rate 100×): 2.3 cm
Biomass Reduction ([1]; rate 100×): 98.3%
Biomass ([1]; rate 100×): 0.06 g
Visual Control ([1]; rate 100×): 95%
Height ([2]; rate 1/10×): 28.0 cm
Biomass Reduction ([2]; rate 1/10×): 21.1%
Biomass ([2]; rate 1/10×): 3.00 g
Visual Control ([2]; rate 1/10×): 9%
Visual Control [2, 3]: 2%
Height ([2]; rate 1/100×): 32.8 cm
Biomass Reduction ([2]; rate 1/100×): −8.2%
Biomass ([2]; rate 1/100×): 4.11 g
Visual Control ([2]; rate 1× (normal use rate)): 16%
Height ([2]; rate 1×): 20.3 cm
Biomass Reduction ([2]; rate 1×): 31.0%
Biomass ([2]; rate 1×): 2.62 g
Height ([2]; rate 10×): 6.8 cm
Biomass Reduction ([2]; rate 10×): 86.8%
Biomass ([2]; rate 10×): 0.50 g
Visual Control ([2]; rate 10×): 62%
Height ([2]; rate 100×): 3.3 cm
Biomass Reduction ([2]; rate 100×): 96.1%
Biomass ([2]; rate 100×): 0.15 g
Visual Control ([2]; rate 100×): 95%

COc1cc(OC)nc(Sc2cccc(Cl)c2C(=O)O)n1 [pyrithiobac, 2-chloro-6-[(4,6-dimethoxy-2-pyrimidinyl)thio]benzoic acid]
Height ([1]; rate 1/10×): 8.8 cm
Biomass Reduction ([1]; rate 1/10×): 89.2%
Biomass ([1]; rate 1/10×): 0.37 g
Visual Control ([1]; rate 1/10×): 59%
Height ([1]; rate 1/100×): 21.8 cm
Biomass Reduction ([1]; rate 1/100×): 49.6%
Biomass ([1]; rate 1/100×): 1.73 g
Visual Control ([1]; rate 1/100×): 16%
Visual Control ([1]; rate 1× (normal use rate)): 99%
Height ([1]; rate 1×): 2.0 cm
Biomass Reduction ([1]; rate 1×): 98.0%
Biomass ([1]; rate 1×): 0.07 g
Height ([1]; rate 10×): 1.8 cm
Biomass Reduction ([1]; rate 10×): 96.5%
Biomass ([1]; rate 10×): 0.12 g
Visual Control ([1]; rate 10×): 99%
Height ([1]; rate 100×): 0.5 cm
Biomass Reduction ([1]; rate 100×): 98.8%
Biomass ([1]; rate 100×): 0.04 g
Visual Control ([1]; rate 100×): 99%
Height ([2]; rate 1/10×): 22.0 cm
Biomass Reduction ([2]; rate 1/10×): 36.3%
Biomass ([2]; rate 1/10×): 2.42 g
Visual Control ([2]; rate 1/10×): 21%
Visual Control [2, 3]: 7%
Height ([2]; rate 1/100×): 26.5 cm
Biomass Reduction ([2]; rate 1/100×): 26.8%
Biomass ([2]; rate 1/100×): 2.78 g
Visual Control ([2]; rate 1× (normal use rate)): 30%
Height ([2]; rate 1×): 17.8 cm
Biomass Reduction ([2]; rate 1×): 37.4%
Biomass ([2]; rate 1×): 2.38 g
Height ([2]; rate 10×): 11.0 cm
Biomass Reduction ([2]; rate 10×): 71.8%
Biomass ([2]; rate 10×): 1.07 g
Visual Control ([2]; rate 10×): 48%
Height ([2]; rate 100×): 2.5 cm
Biomass Reduction ([2]; rate 100×): 98.2%
Biomass ([2]; rate 100×): 0.07 g
Visual Control ([2]; rate 100×): 97%

COc1nc(C)nc(NC(=O)NS(=O)(=O)c2ccsc2C(=O)O)n1 [thifensulfuron, 3-[[[[(4-methoxy-6-methyl-1,3,5-triazin-2-yl)amino]carbonyl]-amino]sulfonyl]-2-thiophenecarboxylic acid]
Height ([1]; rate 1/10×): 11.0 cm
Biomass Reduction ([1]; rate 1/10×): 75.2%
Biomass ([1]; rate 1/10×): 0.85 g
Visual Control ([1]; rate 1/10×): 47%
Height ([1]; rate 1/100×): 25.0 cm
Biomass Reduction ([1]; rate 1/100×): 48.7%
Biomass ([1]; rate 1/100×): 1.76 g
Visual Control ([1]; rate 1/100×): 22%
Visual Control ([1]; rate 1× (normal use rate)): 98%
Height ([1]; rate 1×): 2.0 cm
Biomass Reduction ([1]; rate 1×): 98.0%
Biomass ([1]; rate 1×): 0.07 g
Height ([1]; rate 10×): 0.3 cm
Biomass Reduction ([1]; rate 10×): 98.8%
Biomass ([1]; rate 10×): 0.04 g
Visual Control ([1]; rate 10×): 99%
Height ([1]; rate 100×): 0.5 cm
Biomass Reduction ([1]; rate 100×): 99.1%
Biomass ([1]; rate 100×): 0.03 g
Visual Control ([1]; rate 100×): 99%
Height ([2]; rate 1/10×): 32.5 cm
Biomass Reduction ([2]; rate 1/10×): −17.1%
Biomass ([2]; rate 1/10×): 4.45 g
Visual Control ([2]; rate 1/10×): 9%
Visual Control [2, 3]: 4%
Height ([2]; rate 1/100×): 36.0 cm
Biomass Reduction ([2]; rate 1/100×): −10.8%
Biomass ([2]; rate 1/100×): 4.21 g
Visual Control ([2]; rate 1× (normal use rate)): 22%
Height ([2]; rate 1×): 23.0 cm
Biomass Reduction ([2]; rate 1×): 8.4%
Biomass ([2]; rate 1×): 3.48 g
Height ([2]; rate 10×): 15.8 cm
Biomass Reduction ([2]; rate 10×): 40.8%
Biomass ([2]; rate 10×): 2.25 g
Visual Control ([2]; rate 10×): 38%
Height ([2]; rate 100×): 6.8 cm
Biomass Reduction ([2]; rate 100×): 84.7%
Biomass ([2]; rate 100×): 0.58 g
Visual Control ([2]; rate 100×): 64%

Source: US20060130172A1, “Gene encoding resistance to acetolactate synthase-inhibiting herbicides” (priority 2003, published 2006)
